Where two headings read alike, the source gives them in different places.
How the values were obtained:
HCT116 MTAP^−/− cells = test: Cell proliferation inhibition test (Cell-Titer Glo), HCT116 MTAP−/−; format: cell-based, human; settings: 6 days, read-out: HCT116 MTAP−/− Antiproliferative activity IC50
In short: (§1)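 Cells seeded at 400 per well, overnight, then exposed 6 days at 37 °C to compound from 10 μM top final concentration in 3-fold dilutions. Viability by ATP luminescence (Cell-Titer Glo), normalised to medium-only and DMSO controls, IC50 by curve fitting.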

HCT116 WT cells = test: Cell proliferation inhibition test (Cell-Titer Glo), HCT116 WT; format: cell-based, human; settings: 6 days, read-out: HCT116 WT Antiproliferative activity IC50
In short: as §1

SMILES | IC50 (HCT116 MTAP^−/− cells; Homo sapiens, HCT-116, 144 h) [nM] | IC50 (HCT116 WT cells; Homo sapiens, HCT-116, 144 h) [nM] | IC50 (HCT116 MTAP^−/− cells) [nM] | IC50 (HCT116 WT cells) [nM]
Cc1ncccc1-n1c(=O)c2ncoc2c2ccc(C(F)(F)F)nc21 [Compound 40, 5-(2-methylpyridin-3-yl)-7-(trifluoromethyl)oxazolo[4,5-c][1,8]naphthyridin-4(5H)-one] | 120 | 414 | – | –
Cc1ncccc1-n1c(=O)c2ncn(C)c2c2ccc(C(F)(F)F)cc21 [Compound 45, 1-methyl-5-(2-methylpyridin-3-yl)-7-(trifluoromethyl)-1,5-dihydro-4H-imidazo[4,5-c]quinolin-4-one] | 134 | 902 | – | –
Cn1cnc2c(=O)n(-c3cccc(F)c3Cl)c3cc(Cl)ccc3c21 [Compound 39, 7-chloro-5-(2-chloro-3-fluorophenyl)-1-methyl-1,5-dihydro-4H-imidazo[4,5-c]quinolin-4-one] | – | – | 106 | 626
Cn1cnc2c(=O)n(-c3cccnc3C3CC3)c3cc(Cl)ccc3c21 (single isomer, unassigned) [Compound 49-P2, 7-chloro-5-(2-cyclopropylpyridin-3-yl)-1-methyl-1,5-dihydro-4H-imidazo[4,5-c]quinolin-4-one] | 34.4 | 488 | – | –
Cn1cnc2c(=O)n(-c3cccc(F)c3Cl)c3nc(C(F)(F)F)ccc3c21 (atropisomer, axis not shown) [Compound 25, 5-(2-chloro-3-fluorophenyl)-1-methyl-7-(trifluoromethyl)-1,5-dihydro-4H-imidazo[4,5-c][1,8]naphthyridin-4-one] | 155 | 663 | – | –

Further lines, with some results ahead:

IC50 (HCT116 MTAP^−/− cells; Homo sapiens, HCT-116, 144 h) [nM] | IC50 (HCT116 WT cells; Homo sapiens, HCT-116, 144 h) [nM] | SMILES | IC50 (HCT116 MTAP^−/− cells) [nM] | IC50 (HCT116 WT cells) [nM]
90.9 | > 10000 | Cn1cnc2c(=O)n(-c3cccnc3C3CC3)c3cc(C(F)(F)F)ccc3c21 (single isomer, unassigned) [Compound 48-P2, 5-(2-cyclopropylpyridin-3-yl)-1-methyl-7-(trifluoromethyl)-1,5-dihydro-4H-imidazo[4,5-c]quinolin-4-one] | – | –
76.5 | 474 | Cc1ncccc1-n1c(=O)c2ncn(C)c2c2ccc(C(F)(F)F)nc21 (atropisomer, axis not shown) [Compound 20, 1-methyl-5-(2-methylpyridin-3-yl)-7-(trifluoromethyl)-1,5-dihydro-4H-imidazo[4,5-c][1,8]naphthyridin-4-one] | – | –
111 | 1340 | O=c1c2ncoc2c2ccc(C(F)(F)F)nc2n1-c1cccnc1C1CC1 (single isomer, unassigned) [Compound 81-P2, 5-(2-cyclopropylpyridin-3-yl)-7-(trifluoromethyl)oxazolo[4,5-c][1,8]naphthyridin-4(5H)-one] | – | –
44.2 | 1320 | Cn1cnc2c(=O)n(-c3cccnc3C3CC3)c3nc(C(F)(F)F)ccc3c21 (single isomer, unassigned) [Compound 42-P2, 5-(2-cyclopropylpyridin-3-yl)-1-methyl-7-(trifluoromethyl)-1,5-dihydro-4H-imidazo[4,5-c][1,8]naphthyridin-4-one] | – | –
80.1 | 3820 | Cn1cnc2c(=O)n(-c3cccnc3C(F)(F)F)c3nc(C(F)(F)F)ccc3c21 (single isomer, unassigned) [Compound 41-P2, 1-methyl-7-(trifluoromethyl)-5-(2-(trifluoromethyl)pyridin-3-yl)-1,5-dihydro-4H-imidazo[4,5-c][1,8]naphthyridin-4-one] | – | –
70.5 | 384 | Cn1cnc2c(=O)n(-c3cccc(F)c3Cl)c3nc(C(F)(F)F)ccc3c21 (single isomer, unassigned) [Compound 25-P2, 5-(2-chloro-3-fluorophenyl)-1-methyl-7-(trifluoromethyl)-1,5-dihydro-4H-imidazo[4,5-c][1,8]naphthyridin-4-one] | – | –

Source: patent US20240124454A1, “TRICYCLIC COMPOUND AND USE THEREOF” (NANJING ZAIMING PHARMACEUTICAL CO., LTD., priority 2020, published 2024)
